One experiment concerns the target T1, human GLP-1R (Homo sapiens, UniProt P43220).
T1 construct: expressed in transfected cells; crude membranes
In words: [125I]-GLP-1 binding, SPA with WGA beads, 0.1% bacitracin. The settings on record: geometric mean, read-out: hGLP1R Ki. The method in brief: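 Binding buffer was 25 mM HEPES pH 7.4 with 2.5 mM CaCl2, 1 mM MgCl2, 0.1% (w/v) bacitracin, 0.003% Tween-20 and EDTA-free protease inhibitors. Four-parameter regression gave IC50, converted to Ki (geometric mean, SEM, n independent days).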

The target in the next experiment is T2, human GIPR (Homo sapiens, UniProt P48546).
T2 construct: expressed in transfected cells; crude membranes
T2 sequence (P48546 22-466): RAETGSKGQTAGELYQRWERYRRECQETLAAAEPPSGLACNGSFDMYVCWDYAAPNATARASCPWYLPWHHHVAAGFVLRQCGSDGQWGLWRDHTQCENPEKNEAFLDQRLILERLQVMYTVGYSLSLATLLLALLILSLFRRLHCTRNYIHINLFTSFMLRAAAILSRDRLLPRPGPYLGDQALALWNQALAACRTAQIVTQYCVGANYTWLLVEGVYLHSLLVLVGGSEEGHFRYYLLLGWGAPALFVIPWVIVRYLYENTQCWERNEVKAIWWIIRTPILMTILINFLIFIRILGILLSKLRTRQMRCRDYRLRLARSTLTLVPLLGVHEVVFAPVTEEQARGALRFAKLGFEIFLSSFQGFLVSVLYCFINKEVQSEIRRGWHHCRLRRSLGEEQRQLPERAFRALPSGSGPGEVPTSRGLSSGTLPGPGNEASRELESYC
The experiment can be described thus: [125I]-GIP binding, SPA with WGA beads, 0.1% bacitracin. The settings on record: geometric mean, read-out: hGIPR Ki. In a few lines: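 Ki values are geometric means (SEM, n independent days), derived from four-parameter nonlinear regression of IC50. Membranes came from hGIPR-expressing CHO cells.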

Another experiment concerns the target T3, human GcgR (Homo sapiens, UniProt P47871).
T3 construct: expressed in transfected cells; crude membranes
In words: [125I]-Glucagon binding, SPA with WGA beads, 0.1% bacitracin. The settings on record: geometric mean, read-out: hGcgR Ki. The method in brief: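 SPA competition binding with WGA beads on crude membranes from HEK293 cells stably expressing hGcgR. Buffer: 25 mM HEPES pH 7.4, 2.5 mM CaCl2, 1 mM MgCl2, 0.1% bacitracin, 0.003% Tween-20; 10-point 3-fold dilutions, NSB with 1 μM Gcg.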

*1 amine or outer side, *2 acyl side, *3 side chain or, on linkers, in order; H or OH if unused. Where a SMILES comes first, the peptide text is derived from it. Side-chain parts run from the residue outwards. [ ]: non-standard residue; d: D form. The star is where a group is joined. C20 diacid = O=C(O)CCCCCCCCCCCCCCCCCCC(=O)*; C18 diacid = O=C(O)CCCCCCCCCCCCCCCCC(=O)*; γGlu = O=C(O)[C@H](CCC(=O)[*:2])N[*:1]; αMeF = C[C@](N)(Cc1ccccc1)C(=O)O; 4Pal = N[C@@H](Cc1ccncc1)C(=O)O; αMeL = CC(C)C[C@](C)(N)C(=O)O; Iva = CC[C@](C)(N)C(=O)O; Orn = NCCC[C@H](N)C(=O)O; AEEA = NCCOCCOCC(=O)O; Aib = CC(C)(N)C(=O)O

T3 sequence (P47871 26-477): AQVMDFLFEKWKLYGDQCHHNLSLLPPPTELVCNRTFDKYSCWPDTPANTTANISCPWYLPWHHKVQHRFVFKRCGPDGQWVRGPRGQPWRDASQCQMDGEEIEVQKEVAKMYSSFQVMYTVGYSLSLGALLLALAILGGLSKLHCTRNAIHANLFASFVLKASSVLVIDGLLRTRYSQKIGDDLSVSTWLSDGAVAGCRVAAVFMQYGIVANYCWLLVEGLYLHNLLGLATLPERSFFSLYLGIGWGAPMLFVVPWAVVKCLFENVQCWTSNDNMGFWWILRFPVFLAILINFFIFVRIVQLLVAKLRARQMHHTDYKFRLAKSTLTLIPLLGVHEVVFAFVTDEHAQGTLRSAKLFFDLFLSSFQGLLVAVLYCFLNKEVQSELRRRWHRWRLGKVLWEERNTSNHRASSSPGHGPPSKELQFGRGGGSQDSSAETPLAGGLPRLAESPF
T1 sequence (P43220 24-463): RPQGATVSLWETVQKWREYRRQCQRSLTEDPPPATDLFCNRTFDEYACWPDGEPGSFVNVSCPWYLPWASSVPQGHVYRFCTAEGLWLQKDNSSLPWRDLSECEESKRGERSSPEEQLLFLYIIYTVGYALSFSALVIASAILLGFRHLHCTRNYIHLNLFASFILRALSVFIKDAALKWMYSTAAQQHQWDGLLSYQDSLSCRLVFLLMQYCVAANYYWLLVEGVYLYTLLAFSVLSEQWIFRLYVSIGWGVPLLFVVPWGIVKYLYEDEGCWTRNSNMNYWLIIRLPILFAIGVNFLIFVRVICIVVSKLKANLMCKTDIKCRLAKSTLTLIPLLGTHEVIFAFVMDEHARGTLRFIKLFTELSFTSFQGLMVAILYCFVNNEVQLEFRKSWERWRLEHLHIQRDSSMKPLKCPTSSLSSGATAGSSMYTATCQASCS

With `CC[C@H](C)[C@H](NC(=O)[C@H](CO)NC(=O)[C@H](Cc1ccc(O)cc1)NC(=O)[C@H](CC(=O)O)NC(=O)[C@H](CO)NC(=O)[C@@H](NC(=O)[C@H](Cc1ccccc1)NC(=O)[C@@H](NC(=O)CNC(=O)[C@H](CCC(=O)O)NC(=O)[C@@H](C)NC(=O)[C@@H](N)Cc1ccc(O)cc1)[C@@H](C)O)[C@@H](C)CC)C(=O)N[C@@H](CC(C)C)C(=O)N[C@@H](CC(C)C)C(=O)N[C@@H](CC(=O)O)C(=O)N[C@@H](CCCCN)C(=O)N[C@@H](CCCCNC(=O)COCCOCCNC(=O)COCCOCCNC(=O)CC[C@H](NC(=O)CCCCCCCCCCCCCCCCC(=O)O)C(=O)O)C(=O)N[C@@H](C)C(=O)N[C@@H](CCC(N)=O)C(=O)NC(C)(C)C(=O)N[C@@H](CC(=O)O)C(=O)N[C@@H](Cc1ccccc1)C(=O)N[C@H](C(=O)N[C@@H](CC(N)=O)C(=O)N[C@@H](Cc1c[nH]c2ccccc12)C(=O)N[C@@H](CC(C)C)C(=O)N[C@@H](CC(C)C)C(=O)N[C@@H](CCC(=O)O)C(=O)N[C@@H](CCC(N)=O)C(=O)NCC(=O)N1CCC[C@H]1C(=O)N[C@@H](CO)C(=O)N[C@@H](CO)C(=O)NCC(=O)N[C@@H](C)C(=O)N1CCC[C@H]1C(=O)N1CCC[C@H]1C(=O)N1CCC[C@H]1C(=O)N[C@@H](CO)C(N)=O)C(C)C` [Example 17] (H-Y[dA]EGTFISDYSILLDKK([AEEA-AEEA-γGlu-C18 diacid])AQ[Aib]DFVNWLLEQGPSSGAPPPS-NH2), the Ki is 106 nM on human GLP-1R, 0.0571 nM at human GIPR and 274 nM at human GcgR.

On to `CC[C@H](C)[C@H](NC(=O)[C@H](CO)NC(=O)[C@H](Cc1ccc(O)cc1)NC(=O)[C@H](CC(=O)O)NC(=O)[C@H](CO)NC(=O)[C@@H](NC(=O)[C@H](Cc1ccccc1)NC(=O)[C@@H](NC(=O)CNC(=O)[C@H](CCC(=O)O)NC(=O)C(C)(C)NC(=O)[C@@H](N)Cc1ccc(O)cc1)[C@@H](C)O)[C@@H](C)CC)C(=O)N[C@@H](CC(C)C)C(=O)N[C@@H](CC(C)C)C(=O)N[C@@H](CC(=O)O)C(=O)N[C@@H](CCCCN)C(=O)N[C@@H](CCCCNC(=O)COCCOCCNC(=O)COCCOCCNC(=O)CC[C@H](NC(=O)CCCCCCCCCCCCCCCCCCC(=O)O)C(=O)O)C(=O)N[C@@H](C)C(=O)N[C@@H](CCC(N)=O)C(=O)NC(C)(C)C(=O)N[C@@H](CC(=O)O)C(=O)N[C@@H](Cc1ccccc1)C(=O)N[C@H](C(=O)N[C@@H](CC(N)=O)C(=O)N[C@@H](Cc1c[nH]c2ccccc12)C(=O)N[C@@H](CC(C)C)C(=O)N[C@@H](CC(C)C)C(=O)N[C@@H](C)C(=O)N[C@@H](CCC(N)=O)C(=O)NCC(=O)N1CCC[C@H]1C(=O)N[C@@H](CO)C(=O)N[C@@H](CO)C(=O)NCC(=O)N[C@@H](C)C(=O)N1CCC[C@H]1C(=O)N1CCC[C@H]1C(=O)N1CCC[C@H]1C(=O)N[C@@H](CO)C(N)=O)C(C)C` [Example 8] (H-Y[Aib]EGTFISDYSILLDKK([AEEA-AEEA-γGlu-C20 diacid])AQ[Aib]DFVNWLLAQGPSSGAPPPS-NH2), for which the Ki at human GLP-1R was 38.1 nM; on human GIPR, 0.027 nM; at human GcgR it was 101 nM.

As to `CC[C@H](C)[C@H](NC(=O)[C@H](Cc1ccccc1)NC(=O)[C@@H](NC(=O)CNC(=O)[C@H](CCC(=O)O)NC(=O)C(C)(C)NC(=O)[C@@H](N)Cc1ccc(O)cc1)[C@@H](C)O)C(=O)N[C@@H](CO)C(=O)N[C@@H](CC(=O)O)C(=O)N[C@@H](Cc1ccc(O)cc1)C(=O)N[C@@H](CO)C(=O)N[C@H](C(=O)N[C@@](C)(CC(C)C)C(=O)N[C@@H](CC(C)C)C(=O)N[C@@H](CC(=O)O)C(=O)N[C@@H](CCC(=O)O)C(=O)N[C@@H](CCCCNC(=O)COCCOCCNC(=O)COCCOCCNC(=O)CC[C@H](NC(=O)CCCCCCCCCCCCCCCCCCC(=O)O)C(=O)O)C(=O)N[C@@H](Cc1c[nH]cn1)C(=O)N[C@@H](CCC(N)=O)C(=O)NC(C)(C)C(=O)N[C@@H](CC(=O)O)C(=O)N[C@@H](Cc1ccccc1)C(=O)N[C@H](C(=O)N[C@@H](CCC(=O)O)C(=O)N[C@@H](Cc1ccncc1)C(=O)N[C@@H](CC(C)C)C(=O)N[C@@H](CC(C)C)C(=O)N[C@@H](C)C(=O)N[C@@H](C)C(=O)NCC(=O)N1CCC[C@H]1C(=O)N[C@@H](CO)C(=O)N[C@@H](CO)C(=O)NCC(=O)N[C@@H](C)C(=O)N1CCC[C@H]1C(=O)N1CCC[C@H]1C(=O)N1CCC[C@H]1C(=O)N[C@@H](CO)C(N)=O)C(C)C)[C@@H](C)CC` [Example 85], the results for the Ki on human GLP-1R, at human GIPR and on human GcgR were 220 nM, 0.0529 nM and 800 nM, respectively.

Consider `CC[C@H](C)[C@H](NC(=O)[C@H](CO)NC(=O)[C@H](Cc1ccc(O)cc1)NC(=O)[C@H](CC(=O)O)NC(=O)[C@H](CO)NC(=O)[C@@H](NC(=O)[C@](C)(Cc1ccccc1)NC(=O)[C@@H](NC(=O)CNC(=O)[C@H](CCC(=O)O)NC(=O)C(C)(C)NC(=O)[C@@H](N)Cc1ccc(O)cc1)[C@@H](C)O)[C@@H](C)CC)C(=O)N[C@@H](C)C(=O)N[C@@H](CC(C)C)C(=O)N[C@@H](CC(=O)O)C(=O)N[C@@H](CCCCN)C(=O)N[C@@H](CCCCNC(=O)COCCOCCNC(=O)COCCOCCNC(=O)CC[C@H](NC(=O)CCCCCCCCCCCCCCCCC(=O)O)C(=O)O)C(=O)N[C@@H](Cc1c[nH]cn1)C(=O)N[C@@H](CCC(N)=O)C(=O)NC(C)(C)C(=O)N[C@@H](CC(=O)O)C(=O)N[C@@H](Cc1ccccc1)C(=O)N[C@H](C(=O)N[C@@H](CCC(=O)O)C(=O)N[C@@H](Cc1ccncc1)C(=O)N[C@@H](CC(C)C)C(=O)N[C@@H](CC(C)C)C(=O)N[C@@H](C)C(=O)NCC(=O)NCC(=O)N1CCC[C@H]1C(=O)N[C@@H](CO)C(=O)N[C@@H](CO)C(=O)NCC(=O)N[C@@H](C)C(=O)N1CCC[C@H]1C(=O)N1CCC[C@H]1C(=O)N1CCC[C@H]1C(=O)N[C@@H](CO)C(N)=O)C(C)C` [Example 23] (H-Y[Aib]EGT[αMeF]ISDYSIALDKK([AEEA-AEEA-γGlu-C18 diacid])HQ[Aib]DFVE[4Pal]LLAGGPSSGAPPPS-NH2), for which the values for the Ki on human GLP-1R, at human GIPR and on human GcgR were 251 nM, 0.0341 nM and 323 nM, respectively.

Take `CC[C@H](C)[C@H](NC(=O)[C@H](Cc1ccccc1)NC(=O)[C@@H](NC(=O)CNC(=O)[C@H](CCC(=O)O)NC(=O)C(C)(C)NC(=O)[C@@H](N)Cc1ccc(O)cc1)[C@@H](C)O)C(=O)N[C@@H](CO)C(=O)N[C@@H](CC(=O)O)C(=O)N[C@@H](Cc1ccc(O)cc1)C(=O)N[C@@H](CO)C(=O)N[C@H](C(=O)N[C@@](C)(CC(C)C)C(=O)N[C@@H](CC(C)C)C(=O)N[C@@H](CC(=O)O)C(=O)N[C@@H](CCCN)C(=O)N[C@@H](CCCCNC(=O)COCCOCCNC(=O)COCCOCCNC(=O)CC[C@H](NC(=O)CCCCCCCCCCCCCCCCCCC(=O)O)C(=O)O)C(=O)N[C@@H](Cc1c[nH]cn1)C(=O)N[C@@H](CCC(N)=O)C(=O)NC(C)(C)C(=O)N[C@@H](CC(=O)O)C(=O)N[C@@H](Cc1ccccc1)C(=O)N[C@H](C(=O)N[C@@H](CCC(=O)O)C(=O)N[C@@H](Cc1ccncc1)C(=O)N[C@@H](CC(C)C)C(=O)N[C@@H](CC(C)C)C(=O)N[C@@H](CCC(=O)O)C(=O)NCC(=O)NCC(=O)N1CCC[C@H]1C(=O)N[C@@H](CO)C(=O)N[C@@H](CO)C(=O)NCC(=O)N[C@@H](C)C(=O)N1CCC[C@H]1C(=O)N1CCC[C@H]1C(=O)N1CCC[C@H]1C(=O)N[C@@H](CO)C(N)=O)C(C)C)[C@@H](C)CC` [Example 82] (H-Y[Aib]EGTFISDYSI[αMeL]LD[Orn]K([AEEA-AEEA-γGlu-C20 diacid])HQ[Aib]DFVE[4Pal]LLEGGPSSGAPPPS-NH2): the Ki at human GLP-1R is 388 nM; on human GIPR it was 0.0617 nM; at human GcgR, 305 nM.

In the case of `CC[C@H](C)[C@H](NC(=O)[C@H](CO)NC(=O)[C@H](Cc1ccc(O)cc1)NC(=O)[C@H](CC(=O)O)NC(=O)[C@H](CO)NC(=O)[C@@H](NC(=O)[C@](C)(CC)NC(=O)[C@@H](NC(=O)CNC(=O)[C@H](CCC(=O)O)NC(=O)C(C)(C)NC(=O)[C@@H](N)Cc1ccc(O)cc1)[C@@H](C)O)[C@@H](C)CC)C(=O)N[C@@](C)(CC(C)C)C(=O)N[C@@H](CC(C)C)C(=O)N[C@@H](CC(=O)O)C(=O)N[C@@H](CCCCN)C(=O)N[C@@H](CCCCNC(=O)COCCOCCNC(=O)COCCOCCNC(=O)CC[C@H](NC(=O)CCCCCCCCCCCCCCCCCCC(=O)O)C(=O)O)C(=O)N[C@@H](Cc1c[nH]cn1)C(=O)N[C@@H](CCC(N)=O)C(=O)NC(C)(C)C(=O)N[C@@H](CC(=O)O)C(=O)N[C@@H](Cc1ccccc1)C(=O)N[C@H](C(=O)N[C@@H](CCC(=O)O)C(=O)N[C@@H](Cc1ccncc1)C(=O)N[C@@H](CC(C)C)C(=O)N[C@@H](CC(C)C)C(=O)N[C@@H](CCC(=O)O)C(=O)N[C@@H](C)C(=O)NCC(=O)N1CCC[C@H]1C(=O)N[C@@H](CO)C(=O)N[C@@H](CO)C(=O)NCC(=O)N[C@@H](C)C(=O)N1CCC[C@H]1C(=O)N1CCC[C@H]1C(=O)N1CCC[C@H]1C(=O)N[C@@H](CO)C(N)=O)C(C)C` [Example 88] (H-Y[Aib]EGT[Iva]ISDYSI[αMeL]LDKK([AEEA-AEEA-γGlu-C20 diacid])HQ[Aib]DFVE[4Pal]LLEAGPSSGAPPPS-NH2), the Ki on human GLP-1R was determined as 261 nM; at human GIPR, 0.083 nM; on human GcgR, 788 nM.
